Assays:
[1] = system: CHO-K1 (Chinese Hamster Ovarian Cancer, ATCC, CRL-2243) cell line; test: Ex-vivo efficacy study with OLED Device A and ALA (MTT cell viability, microscopy)
[2] = system: person suffering from actinic keratoses; test: Photodynamic treatment of actinic keratoses lesions with red OLED light; settings: 20% topical solution; illuminated about 14-18 hours after application with red OLED of Example 2
[3] = system: person suffering from age-related macular degeneration; test: Verteporphin activated by red OLED light in age-related macular degeneration; assay type: in vivo; settings: about 6 mg/m^2 i.v.; retina illuminated about 15 minutes after start of infusion with red OLED
[4] = system: person suffering from pathological myopia; test: Verteporphin activated by red OLED light in pathological myopia; assay type: in vivo; settings: about 6 mg/m^2 i.v.; retina illuminated about 15 minutes after start of infusion with red OLED
[5] = system: person suffering from presumed ocular histoplasmosis; settings: in vivo, iv

**Q.** What does the source list for `NCC(=O)CCC(=O)O` [ALA, 5-aminolevulinic acid]?
**A.** cell necrosis, 20 mW/cm^2 versus 10 mW/cm^2 output power ([1]; ALA 1 mM, irradiation time 25 min at 20 mW/cm^2 and 50 min at 10 mW/cm^2 (FIG. 17)): somewhat faster with 20 mW/cm^2 than 10 mW/cm^2; generation of PpIX (protoporphyrin IX) from ALA in cells ([1]; ALA 0.5, 1, 2 mM, about 16 hrs at 37° C., fluorescence emission at 635 nm): confirmed; cytotoxicity at 1000 µM ([1]; Cricetulus griseus, CHO-K1, light or radiation study, read-out: cells destroyed compared with the reference (MTT cell viability, light dosimetry)): ~90%; cell morphology under optical microscope after light irradiation ([1]; after about 25 J/cm^2 red light (630 nm) irradiation, leafy type cells transform to droplet type (FIG. 14)): significant and irreversible cell death

**Q.** `Cl.NCC(=O)CCC(=O)O` [5-Aminolevulinic acid HCl] was tested. Which “number or severity of the lesions after treatment” value [2] did it give?
**A.** reduced

**Q.** `C=Cc1c(C)c2cc3nc(cc4[nH]c(cc5nc(cc1[nH]2)C(C)=C5CCC(=O)O)c(CCC(=O)OC)c4C)[C@@]1(C)C3=CC=C(C(=O)OC)[C@H]1C(=O)OC` [Verteporphin] was tested. Which “patient's vision after treatment” value [3] did it give?
**A.** stabilized

**Q.** And the “patient's vision after treatment” value [4]?
**A.** stabilized

**Q.** What about the “patient's vision after treatment” value [5] of the same compound?
**A.** stabilized
